Experimental data from patent US8883130B2, “Transparent antiperspirant gels” (Henkel AG & Co. KGaA, priority 2008, dated 2014).

Experiment: Emulsion stability with silicone-free water-in-oil emulsifiers
Type: physicochemical

stability of the emulsion: did not yield stable emulsions
Substance: Laureth-2
